Data as given in patent US20240116850A1, “COMPOSITIONS AND METHODS RELATED TO BICYCLO[2.2.1] HEPTANAMINE-CONTAINING COMPOUNDS” (The Broad Institute, Inc., priority 2020, published 2024).
Entries after “also recorded” stand apart in the source; their conditions may differ.

Key:
[1] = Physical and chemical stability on storage (LC-MS and XRPD); format: physicochemical; conditions: for decomposition or solid form change in stability assay / Stability (matrix of results from solid form characterization): 1 week stability assay; for Solid Form after storage (XRPD) / Stability: 25/60% RH; 40 C./75% RH; 1 week / Form change?: 1 week; for Stability: 25/60% RH; 40 C./75% RH; 1 week / Form change?: BRD4780 salt solid form, 25/60% RH and 40 C./75% RH; for Stability: 25/60% RH; 40 C./75% RH; 1 week: impurities estimated by LCMS by observation of the TIC; for Form change?: solid form change (XRPD); for Stability (matrix of results from solid form characterization): summary grade Good/Moderate/Poor
Experimental: To compare the physical/chemical stability of the salt candidates, approximate 10 mg of each solid sample was added to a 5-mL glass vial covered with Parafilm® with several pin-holes on it, and then stored under 25° C./60% RH and 40° C./75% RH. After one week storage, solids were taken out for LC-MS and XRPD test to evaluate physical and chemical stability.

[2] = as above; format: physicochemical
[3] = Dynamic Vapor Sorption (DVS) hygroscopicity; format: physicochemical; conditions: for DVS (matrix of results from solid form characterization): summary grade Good/Moderate/Poor
Experimental: Dynamic Vapor Sorption (DVS) was measured via a SMS (Surface Measurement Systems) DVS Intrinsic. The relative humidity at 25° C. were calibrated against the deliquescence point of LiCl, Mg(NO3)2 and KCl.

[4] = TGA and DSC thermal characterization of salts; format: physicochemical; conditions: summary grade Good/Moderate/Poor
Experimental: TGA data were collected using a TA Discovery5500/Q5000 TGA from TA Instruments. DSC was performed using a TA Discovery2500/Q2000 DSC from TA Instruments.

[5] = Equilibrium solubility in water and bio-relevant media (SGF, FaSSIF, FeSSIF); conditions: for Solubility (matrix of results from solid form characterization): summary grade Good/Moderate/Poor; for solubility: thermodynamic from solid
physchem = conditions: thermodynamic from solid
[6] = Fasted State Simulated Intestinal Fluid (pH 6.5)
[7] = Fed State Simulated Intestinal Fluid (pH 5.0)
[8] = Simulated gastric fluid (pH 1.8)
[9] = water, HCl salt tested at 100 mg/mL, other salts at 50 mg/mL
[10] = water, H2O solubility (mM; salt)

decomposition or solid form change in stability assay [1]	Solid Form after storage (XRPD) ([1]; 25° C./60% RH)	Solid Form after storage (XRPD) ([1]; 40° C./75% RH)	Stability: 25/60% RH; 40 C./75% RH; 1 week [1]	Form change? [1]	Stability (matrix of results from solid form characterization) [1]	DVS (% H2O uptake at 25 C./80% RH) ([3]; 80% RH)	DVS (% H2O uptake at 25 C./95% RH) [3]	hygroscopicity classification ([3]; DVS)	DVS (matrix of results from solid form characterization) [3]	TGA/DSC (matrix of results from solid form characterization) [4]	FaSSIF solubility [5, 6]	FeSSIF solubility [5, 7]	SGF solubility [5, 8]	pH ([5]; final solution in FaSSIF)	pH ([5]; final solution in FeSSIF)	pH ([5]; final solution in H2O)	pH ([5]; final solution in SGF)	Solubility (matrix of results from solid form characterization) [5]	H2O solubility (mM; salt) ([5]; water)	Structure (SMILES)	further results
form change observed	Phosphate Type A + B	Phosphate Type A + B	No significant impurities	Phosphate A	Poor	1.18%	5.8%	hygroscopic	Poor	Poor				5.1	4.8	4.4	3.0	Good		CC(C)[C@@H]1[C@H]2CC[C@H](C2)[C@H]1N (racemic) [Phosphate Type B]	desorption of absorbed H2O ([3]; DVS): did not fully desorb; solubility ([5]; fasted state simulated intestinal fluid (FaSSIF), pH 6.5, fassif, FaSSIF solubility, Fasted State Simulated Intestinal Fluid (pH 6.5)): > 29 mg/mL; solubility ([5]; fed state simulated intestinal fluid (FeSSIF), pH 5, fessif, FeSSIF solubility, Fed State Simulated Intestinal Fluid (pH 5.0)): > 27 mg/mL; solubility ([5]; simulated gastric fluid (SGF), pH 1.8, simulated gastric fluid, SGF solubility, Simulated gastric fluid (pH 1.8)): > 32 mg/mL; solubility [5, 10]: > 163 mM; solubility ([5]; water, H2O solubility (mg/mL; salt), HCl salt tested at 100 mg/mL, other salts at 50 mg/mL): > 33 mg/mL
new peaks observed	Succinate Type A + peaks	Succinate Type A	No significant impurities	New Peaks	Moderate	0.08%	0.67%	not hygroscopic	Good	Good				4.5	4.6	4.5	4.4			CC(C)[C@@H]1[C@H]2CC[C@H](C2)[C@H]1N.O=C(O)CCC(=O)O [Succinate Type A]	Solid Form after storage (XRPD) ([1]; 25° C./60% RH, listed as succinate Type A): new peaks were observed; solubility (physchem; pH 1.8, simulated gastric fluid, SGF solubility): > 28 mg/mL; solubility (physchem; pH 6.5, fassif, FaSSIF solubility): > 28 mg/mL; solubility (physchem; [10]): > 103 mM; solubility (physchem; water, H2O solubility (mg/mL; salt)): > 28 mg/mL

Structure (SMILES)	decomposition or solid form change in stability assay [1]	Solid Form after storage (XRPD) ([1]; 25° C./60% RH)	Solid Form after storage (XRPD) ([1]; 40° C./75% RH)	Stability: 25/60% RH; 40 C./75% RH; 1 week [1]	Form change? [1]	Stability (matrix of results from solid form characterization) [1]	DVS (% H2O uptake at 25 C./80% RH) ([3]; 80% RH)	DVS (% H2O uptake at 25 C./95% RH) [3]	hygroscopicity classification ([3]; DVS)	DVS (matrix of results from solid form characterization) [3]	TGA/DSC (matrix of results from solid form characterization) [4]	FaSSIF solubility [5, 6]	FeSSIF solubility [5, 7]	SGF solubility [5, 8]	pH ([5]; final solution in FaSSIF)	pH ([5]; final solution in FeSSIF)	pH ([5]; final solution in H2O)	pH ([5]; final solution in SGF)	Solubility (matrix of results from solid form characterization) [5]	H2O solubility (mM; salt) ([5]; water)	further results
CC(C)C1C2CCC(C2)C1N.Cl (racemic) [HCl salt Type A, rac-3-exo-isopropylbicyclo[2.2.1]heptan-2-endo-amine hydrochloride, reference compound]	did not display decomposition or solid form change	HCl salt Type A	HCl salt Type A	No significant impurities	No change	Good	0.55%	3.3%	slightly hygroscopic	Moderate	Good	>71 mg/mL	>75 mg/mL	>77 mg/mL	6.0	4.8	4.5	1.8	Good	>405.84 mM	new peak on LC-MS chromatogram after storage ([2]; 60° C. for 24 h): a new peak was observed; Solid Form after storage (XRPD) ([2]; 60° C., 24 h): HCl salt Type A; H2O absorption ([3]; 80% RH): 0.55 wt %; H2O absorption ([3]; 90% RH): 3.3 wt %; H2O solubility (mg/mL; salt) [5, 9]: >77 mg/mL
CC(C)[C@@H]1[C@H]2CC[C@H](C2)[C@H]1N [L-malate Type C]	form change observed	L-malate Type C	partly converted to L-malate Type B; also recorded: L-malate Type B + C	No significant impurities	Type B observed	Poor	0.18%	0.30%	not hygroscopic	Good	Poor	>30 mg/mL	>32 mg/mL	>33 mg/mL	6.4	5.2	7.1	5.3	Good	>136.17 mM	H2O solubility (mg/mL; salt) [5, 9]: >39 mg/mL
